Results reported in patent US20110124634A1, “BIOACTIVE COMPOUNDS FOR TREATMENT OF CANCER AND NEURODEGENERATIVE DISEASES” (PONIARD PHARMACEUTICALS, INC., priority 2008, published 2011).

Legend:
Type in all cases: cell-based
HT29 = test: MTS assay (cytotoxicity), growth inhibition of HT29; conditions: Homo sapiens, HT-29, 120 h, Table 5, series III, 5 days, read-out: Growth Inhibition (IC50) HT29
Method: (§1) Cells were seeded in 96-well plates at 2000 cells/well in a final culture volume of 100 ul for 24 hours before the addition of 25 ul of increasing concentrations of inhibitors that was incubated for 5 days. Viable cell number was determined using the CellTiter 96 AQueous One Solution Cell Proliferation Assay (Promega). Plates were read at 490 nm absorbance 2-4 hours after addition of the MTS reagent using a multiwell plate spectrophotometer. Background was determined by measuring the Abs 490 nm of cell culture medium and MTS in the absence of cells. The background value was subtracted from all values. Absorbance 490 nm values for each inhibitor were plotted against the log 10 inhibitor concentration, and IC50 values were calculated using a nonlinear least-square curve fitting program in Prism 5.

[1] = tested on: HSP90 client protein Her2 in SKBR-3 cells; test: Her-2 degradation assay (Her-2 ELISA) in SKBr-3 cells; conditions: Homo sapiens, SK-BR-3, Table 5, series III, 18 hours
Method: Most of the compounds synthesized were evaluated for their ability to induce degradation of the HSP90 client protein Her2 in SKBR-3 cells. Selected compounds were evaluated in a fluorescence polarization (FP) assay for their affinity to HSP90.
SKBr-3 cells grown in McCoy's 5a Medium supplemented with 10% fetal bovine serum (FBS) were plated into 12-well plates at 50% confluency. Increasing concentrations of inhibitors were added 24 hours later (cells are 65-70% confluent) and incubated overnight for 18 hours. The wells were washed with 2 ml of phosphate buffered saline (PBS), and 50 ul of trypsin was added to each well. After trypsinization was complete, 150 ul of FBS was added to each well. Then 200 ul of cells were transferred to 96-well plates and plates were centrifuged at 1200 rpm for 2 minutes using a tabletop centrifuge. The cells were washed once with 250 ul PBS before being lysed with 100 ul of 50 mM Tris (pH 7.4), 0.1% NP-40 lysis buffer. Protein concentrations of clarified lysates were determined using the BCA Assay (Calbiochem) according to the manufacturer's instructions. 2 ug of each lysate was analyzed in the human sp 185 Her-2 ELISA (Bender Medsystems) according to the manufacturer's instructions. ELISA plates were read at 450 nm using a multiwell plate spectrophotometer. Background was determined by measuring the Abs 450 nm of wells with no lysate added. The background value was subtracted from all values. Absorbance 450 nm values for each inhibitor were plotted against the log 10 inhibitor concentration, and IC50 values were calculated using a nonlinear least-square curve fitting program in Prism 5.

MCF-7 = test: MTS assay (cytotoxicity), growth inhibition of MCF-7; conditions: Homo sapiens, MCF7, 120 h, Table 5, series III, 5 days, read-out: Growth Inhibition (IC50) MCF-7
Method: as §1

SKBR-3 = test: MTS assay (cytotoxicity), growth inhibition of SKBR-3; conditions: Homo sapiens, SK-BR-3, 120 h, Table 5, series III, 5 days, read-out: Growth Inhibition (IC50) SKBR-3
Method: as §1

BT474 = test: MTS assay (cytotoxicity), growth inhibition of BT474; conditions: Homo sapiens, BT-474, 120 h, Table 5, series III, 5 days, read-out: Growth Inhibition (IC50) BT474
Method: as §1

| IC50 [1] [nM] | Structure (SMILES) | IC50 (HT29) [nM] | IC50 (MCF-7) [nM] | IC50 (SKBR-3) [nM] | IC50 (BT474) [nM] |
| --- | --- | --- | --- | --- | --- |
| 90 | COc1c(C)cnc(CN2C(=O)/C(=C\c3ncc[nH]3)c3c(Cl)nc(N)nc32)c1C [III-3, 2-Amino-4-chloro-5-[1-(1H-imidazol-2-yl)-meth-(Z)-ylidene]-7-(4-methoxy-3,5-dimethyl-pyridin-2-ylmethyl)-5,7-dihydro-pyrrolo[2,3-d]pyrimidin-6-one] | 70 | 100 | 40 | 60 |
| 340 | COc1c(C)cnc(CN2C(=O)/C(=C\c3[nH]cnc3C)c3c(Cl)nc(N)nc32)c1C [III-4, 2-Amino-4-chloro-7-(4-methoxy-3,5-dimethyl-pyridin-2-ylmethyl)-5-[1-(5-methyl-3H-imidazol-4-yl)-meth-(Z)-ylidene]-5,7-dihydro-pyrrolo[2,3-d]pyrimidin-6-one] | 120 | 530 | 160 | 190 |
| 480 | COC(=O)c1ccc(/C=C2\C(=O)N(Cc3ncc(C)c(OC)c3C)c3nc(N)nc(Cl)c32)[nH]1 [III-5, 5-[2-Amino-4-chloro-7-(4-methoxy-3,5-dimethyl-pyridin-2-ylmethyl)-6-oxo-6,7-dihydro-pyrrolo[2,3-d]pyrimidin-(5Z)-ylidenemethyl]-1H-pyrrole-2-carboxylic acid methyl ester] | 560 | 960 | 230 | 210 |
| 6570 | COc1c(C)cnc(CN2C(=O)/C(=C\c3cc4c([nH]3)CCC=C4Cl)c3c(Cl)nc(N)nc32)c1C [III-7, 2-Amino-4-chloro-5-[1-(4-chloro-6,7-dihydro-1H-indol-2-yl)-meth-(Z)-ylidene]-7-(4-methoxy-3,5-dimethyl-pyridin-2-ylmethyl)-5,7-dihydro-pyrrolo[2,3-d]pyrimidin-6-one] | 2010 | 5430 | 5750 | 4710 |
| 150 | COc1c(C)cnc(CN2C(=O)/C(=C\c3ccc(C(=O)C(F)(F)F)[nH]3)c3c(Cl)nc(N)nc32)c1C [III-8, 2-Amino-4-chloro-7-(4-methoxy-3,5-dimethyl-pyridin-2-ylmethyl)-5-[1-[5-(2,2,2-trifluoro-acetyl)-1H-pyrrol-2-yl]-meth-(Z)-ylidene]-5,7-dihydro-pyrrolo[2,3-d]pyrimidin-6-one] | 1310 | 810 | 150 | 470 |
| 280 | COc1c(C)cnc(CN2C(=O)/C(=C\c3[nH]ncc3Br)c3c(Cl)nc(N)nc32)c1C [III-10, (Z)-2-Amino-5-((4-bromo-1H-pyrazol-5-yl)methylene)-4-chloro-7-((4-methoxy-3,5-dimethylpyridin-2-yl)methyl)-5H-pyrrolo[2,3-d]pyrimidin-6(7H)-one] | 480 | 1270 | 170 | 320 |
| 190 | COc1c(C)cnc(CN2C(=O)/C(=C\c3cc(Br)c[nH]3)c3c(Cl)nc(N)nc32)c1C [III-11, (Z)-2-Amino-5-((4-bromo-1H-pyrrol-2-yl)methylene)-4-chloro-7-((4-methoxy-3,5-dimethylpyridin-2-yl)methyl)-5H-pyrrolo[2,3-d]pyrimidin-6(7H)-one] | 380 | 1380 | 140 | 430 |
| 30 | COc1c(C)cnc(CN2C(=O)/C(=C\c3cc(C(=O)NCCN4CCOCC4)c[nH]3)c3c(Cl)nc(N)nc32)c1C [III-16, (Z)-5-((2-Amino-4-chloro-7-((4-methoxy-3,5-dimethylpyridin-2-yl)methyl)-6-oxo-6,7-dihydro-5H-pyrrolo[2,3-d]pyrimidin-5-ylidene)methyl)-N-(2-morpholinoethyl)-1H-pyrrole-3-carboxamide] | 50 | 100 | 20 | 10 |
| 360 | COc1c(C)cnc(CN2C(=O)/C(=C\c3cc(C(=O)NCCO)c[nH]3)c3c(Cl)nc(N)nc32)c1C [III-18, (Z)-5-((2-Amino-4-chloro-7-((4-methoxy-3,5-dimethylpyridin-2-yl)methyl)-6-oxo-6,7-dihydro-5H-pyrrolo[2,3-d]pyrimidin-5-ylidene)methyl)-N-(2-hydroxyethyl)-1H-pyrrole-3-carboxamide] | 110 | > 500 | 30 | 30 |
| 10 | CCN(CC)CCNC(=O)c1c[nH]c(/C=C2\C(=O)N(Cc3ncc(C)c(OC)c3C)c3nc(N)nc(Cl)c32)c1 [III-19, (Z)-5-((2-Amino-4-chloro-7-((4-methoxy-3,5-dimethylpyridin-2-yl)methyl)-6-oxo-6,7-dihydro-5H-pyrrolo[2,3-d]pyrimidin-5-ylidene)methyl)-N-(2-(diethylamino)ethyl)-1H-pyrrole-3-carboxamide] | 10 | 70 | 1 | 0.7 |
| 60 | COc1c(C)cnc(CN2C(=O)/C(=C\c3cc(C(=O)NCCNC(C)C)c[nH]3)c3c(Cl)nc(N)nc32)c1C [III-21, (Z)-5-((2-Amino-4-chloro-7-((4-methoxy-3,5-dimethylpyridin-2-yl)methyl)-6-oxo-6,7-dihydro-5H-pyrrolo[2,3-d]pyrimidin-5-ylidene)methyl)-N-(2-(isopropylamino)ethyl)-1H-pyrrole-3-carboxamide] | 60 | 150 | 4 | 10 |
| 80 | COc1c(C)cnc(CN2C(=O)/C(=C\c3cc(C(=O)NCC(O)CO)c[nH]3)c3c(Cl)nc(N)nc32)c1C (stereo not shown) [III-22, (Z)-5-((2-Amino-4-chloro-7-((4-methoxy-3,5-dimethylpyridin-2-yl)methyl)-6-oxo-6,7-dihydro-5H-pyrrolo[2,3-d]pyrimidin-5-ylidene)methyl)-N-(2,3-dihydroxypropyl)-1H-pyrrole-3-carboxamide] | 360 | 400 | 80 | 110 |
| 5 | COc1c(C)cnc(CN2C(=O)/C(=C\c3cc(C(=O)NCCN4CCCC4)c[nH]3)c3c(Cl)nc(N)nc32)c1C [III-26, (Z)-5-((2-Amino-4-chloro-7-((4-methoxy-3,5-dimethylpyridin-2-yl)methyl)-6-oxo-6,7-dihydro-5H-pyrrolo[2,3-d]pyrimidin-5-ylidene)methyl)-N-(2-(pyrrolidin-1-yl)ethyl)-1H-pyrrole-3-carboxamide] | 0.6 | 30 | < 0.2 | 1 |
| 130 | COc1c(C)cnc(CN2C(=O)/C(=C\c3cc(C(=O)N(CCO)CCO)c[nH]3)c3c(Cl)nc(N)nc32)c1C [III-27, (Z)-5-((2-Amino-4-chloro-7-((4-methoxy-3,5-dimethylpyridin-2-yl)methyl)-6-oxo-6,7-dihydro-5H-pyrrolo[2,3-d]pyrimidin-5-ylidene)methyl)-N,N-bis(2-hydroxyethyl)-1H-pyrrole-3-carboxamide] | 130 | 330 | 50 | 80 |
